Laboratory results: ChEMBL document CHEMBL2203071, “Gambogic acid deactivates cytosolic and mitochondrial thioredoxins by covalent binding to the functional domain” (J Nat Prod, 2012)
Active and inactive are the calls of the source. The rule behind the calls is not given here.

What was measured:
[1] = molecular target: T1, Thioredoxin, mitochondrial (Homo sapiens) (UniProt Q99757); test: Covalent binding affinity to TRX-2 in human […] cells assessed as compound-TRX-2 adduct formation at 3 uM after 2 hrs by immunoblotting in presence of GSH; type: cell-based
T1 sequence (whole entry): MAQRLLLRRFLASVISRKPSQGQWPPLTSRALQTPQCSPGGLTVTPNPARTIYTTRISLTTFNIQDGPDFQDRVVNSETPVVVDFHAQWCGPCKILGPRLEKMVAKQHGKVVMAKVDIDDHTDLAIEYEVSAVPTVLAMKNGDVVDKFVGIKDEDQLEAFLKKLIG

[2] = molecular target: T2, Thioredoxin (Homo sapiens) (UniProt P10599); test: Covalent binding affinity to TRX-1 in human […] cells assessed as compound-TRX-1 adduct formation at 3 uM after 2 hrs by immunoblotting in presence of GSH; type: cell-based
T2 sequence (whole entry): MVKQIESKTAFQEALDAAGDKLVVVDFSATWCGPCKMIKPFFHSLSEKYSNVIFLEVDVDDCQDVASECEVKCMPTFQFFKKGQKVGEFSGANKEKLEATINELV

[3] = molecular target: T1, Thioredoxin, mitochondrial (Homo sapiens); test: Covalent binding affinity to TRX-2 in human […] cells at 3 uM after 2 hrs by immunofluorescence assay; type: cell-based
[4] = molecular target: T2, Thioredoxin (Homo sapiens); test: Covalent binding affinity to TRX-1 in human […] cells at 3 uM after 2 hrs by immunofluorescence assay; type: cell-based
[5] = molecular target: T1, Thioredoxin, mitochondrial (Homo sapiens); test: Covalent binding affinity to human recombinant TRX-2 assessed as change in protein configuration at 0.05 mM by MALDITOF mass spectrometry
[6] = molecular target: T2, Thioredoxin (Homo sapiens); test: Covalent binding affinity to human recombinant TRX-1 assessed as change in protein configuration at 0.1 mM by MALDITOF mass spectrometry
[7] = molecular target: T1, Thioredoxin, mitochondrial (Homo sapiens); test: Covalent binding affinity to human recombinant TRX-2 C assessed as modification in C31/C34 residues by LC-MS/MS analysis
[8] = molecular target: T2, Thioredoxin (Homo sapiens); test: Covalent binding affinity to human recombinant TRX-1 C assessed as modification in C62/C69/C73 residues by LC-MS/MS analysis
[9] = molecular target: T2, Thioredoxin (Homo sapiens); test: Inhibition of human recombinant TRX-1 by insulin reduction assay; details: TDE = time-dependent effect
[10] = molecular target: T1, Thioredoxin, mitochondrial (Homo sapiens); test: Inhibition of human recombinant TRX-2 by insulin reduction assay; details: TDE = time-dependent effect
[11] = molecular target: T2, Thioredoxin (Homo sapiens); test: Inhibition of TRX1 in human […] cells after 2 hrs by insulin reduction assay; type: cell-based
[12] = molecular target: T1, Thioredoxin, mitochondrial (Homo sapiens); test: (§1) Inhibition of human recombinant TRX-2 up to 60 mins by insulin reduction assay
[13] = molecular target: T3, Thioredoxin, mitochondrial (Homo sapiens, UniProt Q99757); test: as §1
T3 sequence (Q99757 whole entry): T1 sequence (whole entry)

[14] = molecular target: T2, Thioredoxin (Homo sapiens); test: (§2) Inhibition of human recombinant TRX-1 up to 60 mins by insulin reduction assay
Thioredoxin = molecular target: T4, Thioredoxin (Homo sapiens, UniProt P10599); test: as §2
T4 sequence (P10599 whole entry): T2 sequence (whole entry)

[15] = molecular target: T1, Thioredoxin, mitochondrial (Homo sapiens); test: Covalent binding affinity to human recombinant TRX-2 assessed as change in protein configuration at 20 uM by LC-ESIQTOF mass spectrometry; details: TDE = time-dependent effect
[16] = molecular target: T2, Thioredoxin (Homo sapiens); test: Covalent binding affinity to human recombinant TRX-1 assessed as change in protein configuration at 50 uM by LC-ESIQTOF mass spectrometry; details: TDE = time-dependent effect

SMILES: CC(C)=CCC[C@]1(C)C=Cc2c(O)c3c(c(CC=C(C)C)c2O1)O[C@]12C(=C[C@@H]4C[C@H]1C(C)(C)O[C@@]2(C/C=C(/C)C(=O)NCCCCCNC(=O)CCCC[C@@H]1SC[C@@H]2NC(=O)N[C@@H]21)C4=O)C3=O
- Activity [1]: Active
- Activity [2]: Active
- Activity [3]: Active
- Activity [4]: Active

SMILES: CC(C)=CCC[C@]1(C)C=Cc2c(O)c3c(c(CC=C(C)C)c2O1)O[C@]12C(C3=O)C(O)[C@@H]3C[C@H]1C(C)(C)O[C@@]2(C/C=C(/C)C(=O)O)C3=O (some centres undefined)
- Activity [5]: inactive
- Activity [6]: inactive

SMILES: CC(C)=CCC[C@]1(C)C=Cc2c(O)c3c(c(CC=C(C)C)c2O1)O[C@]12C(C3=O)[C@H](S(=O)(=O)O)[C@@H]3C[C@H]1C(C)(C)O[C@@]2(C/C=C(/C)C(=O)O)C3=O (some centres undefined)
- Activity [5]: inactive
- Activity [6]: inactive

SMILES: CC(C)=CCC[C@]1(C)C=Cc2c(O)c3c(c(CC=C(C)C)c2O1)O[C@]12C(=C[C@@H]4C[C@H]1C(C)(C)O[C@@]2(C/C=C(/C)C(=O)O)C4=O)C3=O [GAMBOGIC ACID]
- Activity [7]: Active
- Activity [8]: Active
- inhibition [9]: tde
- inhibition [10]: tde
- inhibition [11]: Dose-dependent effect
- Kinact [12]: 0.037 min⁻¹
- inhibition [12]: Dose-dependent effect
- Ki [13]: 1.31 µM
- Kinact [14]: 0.063 min⁻¹
- inhibition [14]: Dose-dependent effect
- Ki (Thioredoxin): 3.11 µM
- Activity [15]: tde
- Activity [16]: tde
- Activity [5]: Active
- Activity [6]: Active

SMILES: CC(C)=CCC/C(C)=C/Cc1c(O)c(CC=C(C)C)c2c(c1O)C(=O)C1=C[C@@H]3C[C@H]4C(C)(C)O[C@@](C/C=C(/C)C(=O)O)(C3=O)[C@@]14O2
- Activity [5]: Active
- Activity [6]: Active

SMILES: CC(C)=CCC[C@]1(C)C=Cc2c(O)c3c(c(CC=C(C)C)c2O1)O[C@]12C(C3=O)[C@@H](S(=O)(=O)O)[C@@H]3C[C@H]1C(C)(C)O[C@@]2(C/C=C(/C)C(=O)O)C3=O (some centres undefined)
- Activity [5]: inactive
- Activity [6]: inactive

SMILES: CC(C)=CCC[C@]1(C)C=Cc2c(O)c3c(c(CC=C(C)C)c2O1)O[C@]12C(C[C@@H]4C[C@H]1C(C)(C)O[C@@]2(C/C=C(/C)C(=O)O)C4=O)C3=O (some centres undefined)
- Activity [5]: inactive
- Activity [6]: inactive
